Results on 6 compounds are retold here after ChEMBL document CHEMBL5465560, “Selectivity Literature for EUbOPEN Chemogenomic Library” (2024).

For test [1], the target named is Serine/threonine-protein kinase 24 (Homo sapiens) (UniProt Q9Y6E0). The note with it: at 10 µM.
In test [2] the target is T1, Serine/threonine-protein kinase TBK1 (Homo sapiens) (UniProt Q9UHD2).
T1 sequence (whole entry): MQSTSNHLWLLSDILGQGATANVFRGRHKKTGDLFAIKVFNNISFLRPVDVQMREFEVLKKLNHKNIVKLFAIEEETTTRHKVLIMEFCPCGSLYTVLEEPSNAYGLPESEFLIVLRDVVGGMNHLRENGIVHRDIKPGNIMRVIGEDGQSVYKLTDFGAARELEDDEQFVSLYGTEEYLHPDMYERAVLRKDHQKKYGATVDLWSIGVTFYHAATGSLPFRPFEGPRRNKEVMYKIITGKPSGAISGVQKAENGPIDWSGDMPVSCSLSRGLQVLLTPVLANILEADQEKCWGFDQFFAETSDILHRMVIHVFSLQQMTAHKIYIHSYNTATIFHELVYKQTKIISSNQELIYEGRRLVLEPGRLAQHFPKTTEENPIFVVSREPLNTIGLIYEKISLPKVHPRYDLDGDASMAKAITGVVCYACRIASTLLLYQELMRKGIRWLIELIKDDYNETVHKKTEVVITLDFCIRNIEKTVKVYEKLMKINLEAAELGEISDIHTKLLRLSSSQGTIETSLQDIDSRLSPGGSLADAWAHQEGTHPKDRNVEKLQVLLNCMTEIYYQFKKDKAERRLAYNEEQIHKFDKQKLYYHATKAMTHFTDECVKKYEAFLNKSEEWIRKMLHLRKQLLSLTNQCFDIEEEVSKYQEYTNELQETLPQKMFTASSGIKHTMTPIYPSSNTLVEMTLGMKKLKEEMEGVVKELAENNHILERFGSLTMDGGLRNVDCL
Put plainly: Selectivity interaction (KinomeScan (DiscoverX)) EUB0000666a TBK1. To be noted: at 10 µM.

For test [3], the target named is T2, Mitogen-activated protein kinase kinase kinase 6 (Homo sapiens) (UniProt O95382).
T2 sequence (whole entry): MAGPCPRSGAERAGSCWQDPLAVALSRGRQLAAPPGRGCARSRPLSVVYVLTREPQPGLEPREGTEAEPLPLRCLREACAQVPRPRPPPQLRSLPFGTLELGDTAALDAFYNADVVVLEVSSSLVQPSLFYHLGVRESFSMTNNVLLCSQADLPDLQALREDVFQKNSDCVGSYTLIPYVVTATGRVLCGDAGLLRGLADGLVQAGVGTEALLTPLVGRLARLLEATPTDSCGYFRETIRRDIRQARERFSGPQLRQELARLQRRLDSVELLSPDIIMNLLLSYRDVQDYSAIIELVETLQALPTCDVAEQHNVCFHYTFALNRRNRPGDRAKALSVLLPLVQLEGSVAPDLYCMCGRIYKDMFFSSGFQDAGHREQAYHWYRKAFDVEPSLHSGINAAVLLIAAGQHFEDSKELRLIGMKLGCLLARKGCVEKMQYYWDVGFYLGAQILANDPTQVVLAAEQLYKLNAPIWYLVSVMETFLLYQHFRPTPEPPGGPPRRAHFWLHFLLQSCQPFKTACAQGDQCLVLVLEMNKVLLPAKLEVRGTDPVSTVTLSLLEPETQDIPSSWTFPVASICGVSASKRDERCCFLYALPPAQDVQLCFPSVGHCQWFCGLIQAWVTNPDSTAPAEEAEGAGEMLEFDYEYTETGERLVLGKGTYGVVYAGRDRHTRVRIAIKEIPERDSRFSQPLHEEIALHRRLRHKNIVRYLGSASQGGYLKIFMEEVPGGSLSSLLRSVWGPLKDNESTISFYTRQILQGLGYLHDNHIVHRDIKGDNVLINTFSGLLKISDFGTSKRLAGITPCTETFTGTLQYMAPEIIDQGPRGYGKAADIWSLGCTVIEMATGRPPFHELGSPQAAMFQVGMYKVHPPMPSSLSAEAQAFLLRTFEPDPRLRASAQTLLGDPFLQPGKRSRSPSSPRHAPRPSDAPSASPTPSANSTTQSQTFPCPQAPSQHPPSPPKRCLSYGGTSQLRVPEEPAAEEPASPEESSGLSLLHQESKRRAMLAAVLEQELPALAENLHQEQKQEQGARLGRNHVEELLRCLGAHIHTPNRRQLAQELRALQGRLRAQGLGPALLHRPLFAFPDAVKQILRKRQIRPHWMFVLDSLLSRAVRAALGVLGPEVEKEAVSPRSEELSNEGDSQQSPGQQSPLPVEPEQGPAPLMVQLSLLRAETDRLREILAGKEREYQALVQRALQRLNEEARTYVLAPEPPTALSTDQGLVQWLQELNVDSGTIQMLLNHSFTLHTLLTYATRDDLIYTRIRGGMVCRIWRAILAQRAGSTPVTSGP
The experiment in a line: Selectivity interaction (KinomeScan (DiscoverX)) EUB0000666a MAP3K6. To be noted: at 10 µM.

The target in test [4] is cAMP-dependent protein kinase catalytic subunit beta (Homo sapiens) (UniProt P22694). Put plainly: Selectivity interaction (LanthaScreen Eu Kinase Binding Assay) EUB0001632a PRKACB. To be noted: at 10 µM. Background: Time-resolved FRET reads energy transfer from a long-lived donor to a nearby acceptor.
For test [5], the target named is Protein kinase C delta type (Homo sapiens) (UniProt Q05655). The experiment in a line: Selectivity interaction (KinomeScan (DiscoverX)) EUB0000607a PRKCD. To be noted: at 10 µM.
Test [6] concerns the target Casein kinase I isoform gamma-2 (Homo sapiens) (UniProt P78368). The experiment in a line: Selectivity interaction (KinomeScan (DiscoverX)) EUB0000229b CSNK1G2. The note with it: at 10 µM.
Test [7] addresses T3, Serine/threonine-protein kinase MAK (Homo sapiens) (UniProt P20794).
T3 sequence (whole entry): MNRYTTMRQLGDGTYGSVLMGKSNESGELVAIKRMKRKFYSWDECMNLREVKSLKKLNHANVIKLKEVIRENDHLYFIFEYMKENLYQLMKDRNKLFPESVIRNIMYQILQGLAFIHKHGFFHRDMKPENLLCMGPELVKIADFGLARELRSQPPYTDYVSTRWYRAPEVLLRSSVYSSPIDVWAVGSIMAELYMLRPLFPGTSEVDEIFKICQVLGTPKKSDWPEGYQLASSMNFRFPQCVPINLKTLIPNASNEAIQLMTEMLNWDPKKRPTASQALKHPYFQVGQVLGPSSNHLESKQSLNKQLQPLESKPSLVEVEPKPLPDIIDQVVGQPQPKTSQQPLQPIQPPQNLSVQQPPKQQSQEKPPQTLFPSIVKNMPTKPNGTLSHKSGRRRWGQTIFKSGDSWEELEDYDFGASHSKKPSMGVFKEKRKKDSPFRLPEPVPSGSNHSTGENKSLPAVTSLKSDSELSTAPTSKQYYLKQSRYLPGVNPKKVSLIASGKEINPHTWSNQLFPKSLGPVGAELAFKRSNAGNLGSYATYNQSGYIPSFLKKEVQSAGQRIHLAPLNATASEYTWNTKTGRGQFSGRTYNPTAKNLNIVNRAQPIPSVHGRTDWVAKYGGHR
The experiment in a line: Selectivity interaction (KinomeScan (DiscoverX)) EUB0000229b MAK. The note with it: at 10 µM.

Test [8] concerns the target Adenosine receptor A2a (Homo sapiens, UniProt P29274). The experiment in a line: Selectivity interaction (Adenosine 2A receptor binding assay, human recombinant ) EUB0000877a ADORA2A.

In general, IC50 refers to the concentration at which inhibition is half-maximal.

A value given as a limit tells only on which side of the number the result lay.

Adenosine receptor A2a, sequence (P29274 whole entry): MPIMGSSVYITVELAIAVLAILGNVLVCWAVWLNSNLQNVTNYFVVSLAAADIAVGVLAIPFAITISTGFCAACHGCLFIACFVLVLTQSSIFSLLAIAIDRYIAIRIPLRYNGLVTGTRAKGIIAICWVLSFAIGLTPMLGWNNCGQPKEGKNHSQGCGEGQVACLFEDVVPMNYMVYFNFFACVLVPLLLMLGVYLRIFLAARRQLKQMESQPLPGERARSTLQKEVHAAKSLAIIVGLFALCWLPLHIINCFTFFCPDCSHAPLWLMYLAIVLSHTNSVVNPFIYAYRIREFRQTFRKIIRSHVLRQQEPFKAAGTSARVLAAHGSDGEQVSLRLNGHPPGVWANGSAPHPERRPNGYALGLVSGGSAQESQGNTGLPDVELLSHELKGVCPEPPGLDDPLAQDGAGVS
Serine/threonine-protein kinase 24 (Homo sapiens), sequence (Q9Y6E0 whole entry, looked up): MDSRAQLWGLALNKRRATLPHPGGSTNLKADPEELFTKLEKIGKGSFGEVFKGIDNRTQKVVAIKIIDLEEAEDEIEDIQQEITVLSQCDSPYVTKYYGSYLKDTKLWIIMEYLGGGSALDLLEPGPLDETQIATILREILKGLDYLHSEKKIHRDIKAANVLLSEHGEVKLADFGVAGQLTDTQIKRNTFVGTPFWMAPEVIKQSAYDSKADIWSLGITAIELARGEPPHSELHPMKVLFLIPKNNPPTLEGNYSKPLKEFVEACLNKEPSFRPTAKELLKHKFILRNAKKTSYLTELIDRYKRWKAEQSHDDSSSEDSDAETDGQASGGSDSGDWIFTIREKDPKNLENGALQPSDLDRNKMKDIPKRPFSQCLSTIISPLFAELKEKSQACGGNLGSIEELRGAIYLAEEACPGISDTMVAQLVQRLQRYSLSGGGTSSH
Protein kinase C delta type (Homo sapiens), sequence (Q05655 whole entry, looked up, canonical isoform): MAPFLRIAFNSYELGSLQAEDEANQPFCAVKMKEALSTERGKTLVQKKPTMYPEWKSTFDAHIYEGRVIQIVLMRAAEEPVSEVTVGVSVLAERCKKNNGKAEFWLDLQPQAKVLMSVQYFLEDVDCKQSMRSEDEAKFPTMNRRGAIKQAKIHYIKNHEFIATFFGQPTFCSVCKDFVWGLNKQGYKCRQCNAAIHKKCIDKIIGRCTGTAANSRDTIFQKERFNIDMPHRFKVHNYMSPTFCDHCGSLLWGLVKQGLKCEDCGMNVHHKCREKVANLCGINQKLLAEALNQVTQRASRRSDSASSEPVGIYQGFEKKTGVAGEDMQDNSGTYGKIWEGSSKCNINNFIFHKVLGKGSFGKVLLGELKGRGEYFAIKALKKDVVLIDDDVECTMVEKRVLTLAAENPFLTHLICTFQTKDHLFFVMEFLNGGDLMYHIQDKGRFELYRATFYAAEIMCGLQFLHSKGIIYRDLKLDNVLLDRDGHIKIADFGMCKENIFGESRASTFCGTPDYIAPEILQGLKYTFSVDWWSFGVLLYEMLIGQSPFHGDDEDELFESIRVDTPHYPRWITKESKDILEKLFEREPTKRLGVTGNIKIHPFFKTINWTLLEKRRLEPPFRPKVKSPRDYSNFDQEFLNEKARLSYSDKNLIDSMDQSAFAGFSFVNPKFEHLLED
Casein kinase I isoform gamma-2 (Homo sapiens), sequence (P78368 whole entry, looked up, canonical isoform): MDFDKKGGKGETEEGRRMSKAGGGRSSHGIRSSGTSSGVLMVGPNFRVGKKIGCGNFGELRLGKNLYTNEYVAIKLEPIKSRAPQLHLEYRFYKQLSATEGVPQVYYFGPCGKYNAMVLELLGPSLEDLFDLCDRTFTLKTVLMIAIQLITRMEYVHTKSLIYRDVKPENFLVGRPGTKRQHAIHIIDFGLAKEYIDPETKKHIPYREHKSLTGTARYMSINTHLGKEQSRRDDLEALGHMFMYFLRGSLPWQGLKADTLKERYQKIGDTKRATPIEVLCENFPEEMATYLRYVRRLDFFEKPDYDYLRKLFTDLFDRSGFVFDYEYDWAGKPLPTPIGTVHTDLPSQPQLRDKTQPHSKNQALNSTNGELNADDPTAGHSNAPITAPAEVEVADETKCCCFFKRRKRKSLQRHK

As for `Cc1cc([C@@H](C)Nc2ccccc2C(=O)O)c2nc(N3CCOCC3)cc(=O)n2c1` [AZD-6482], in test [1], the % of control was 100%.
With `O=C(NOC[C@H](O)CO)c1ccc(F)c(F)c1Nc1ccc(I)cc1F`, the % of control in test [2] was 85%; in test [3], 95%.
`Cn1cc(-n2cnc3c(NCc4nc5cc(Cl)c(Cl)cc5[nH]4)nc(N4CCOCC4)nc32)cn1` showed a % of inhibition in test [4] of 4.17%.
As for `CNC(=O)Nc1ccc(-c2nc(N3CC4CCC(C3)O4)c3cnn(C4CCC5(CC4)OCCO5)c3n2)cc1`, the % of control in test [5] was 100%.
Turning to `COc1cc(N(C)c2ccnc3ccc(C(F)(F)F)cc23)cc(OC)c1OC`, the figures for the % binding in test [6] and in test [7] were 96% and 79%, respectively.
`CCC(=O)N1CC[C@H](Nc2ncnc3c2CN(c2cnc(OC)c(C(F)(F)F)c2)CC3)C1` [LENIOLISIB]: the IC50 in test [8] was > 30 µM.
